By LD50 is commonly meant the dose at which mortality reaches 50%. Low readings indicate greater toxicity, high ones lower toxicity. The MIC is the lowest concentration that inhibits growth of the organism.

The values that follow come from patent US4415567A, “7α-Methoxycephalosporin derivatives, and antibacterial drugs containing the same” (Eisai Co., Ltd., priority 1980, dated 1983).

Values after ≈ are worked out from the molar mass of the structure shown. Where a name gives a salt, the structure may show the parent alone. Bounds are passed on as bounds.

A short description of data set [1]: acute toxicity, LD50 (mouse, oral). The note with it: in vivo. From the text:
The acute toxicity values [LD50 (mouse, oral)] for the following compounds of this invention were over 5 g/kg: […]

Data set [2] concerns Klebsielle pneumoniae EK-6. Nature of the data set: MIC, standard agar dilution method, Klebsielle pneumoniae EK-6. The class given is cell-based. The conditions noted are these: Klebsielle pneumoniae EK-6; Mueller Hinton agar, 18 hours, 37° C.; read-out: MIC. How it is done:
(§1) Minimal inhibitory concentration (MIC) was determined by the standard agar dilution method of the Japan Society of Chemotherapy.
(§2) Compounds were dissolved in appropriate solvents (sterilized water for sodium salts and acetone-water [1:1] for free acids) and serial two-fold dilutions were made. Sodium salt of Cefazolin was chosen as the control compound.
(§3) One-ml aliquots of each dilution were mixed with 9 ml of Mueller Hinton gar in petri-dishes to make agar plates containing the compound at serially diluted concentrations. After agar hardened, plates were put in an incubator at 37° C. for 1.5-2 hours with the lids slightly open to evaporate acetone off the plates.
(§4) Test organisms were grown for 18 hours at 37° C. in Trypticase Soy broth and diluted in saline to approximately 10^6 colony forming units per ml. A loopful of each cell suspension was applied on the agar plate mentioned above and the plates were incubated for 18 hours at 37° C. before MIC was determined.
(§5) The results are shown in Table 2, wherein the compound of Example 5 was selected and used in a form of free carboxylic acid as set forth in the Example 5, Item (a).
In general terms: In agar dilution the substance is mixed into plates at graded concentrations.

The test system of data set [3] is Escherichia coli NIHJ. Nature of the data set: MIC, standard agar dilution method, Escherichia coli NIHJ. The note with it: Escherichia coli NIHJ; Mueller Hinton agar, 18 hours, 37° C.; read-out: MIC. The class given is cell-based. As for the experimental part:
as §1, §2, §3, §4, §5

Data set [4] deals with Proteus morganii EP-14. Nature of the data set: MIC, standard agar dilution method, Proteus morganii EP-14. The class given is cell-based. The note with it: Morganella morganii, EP14, Mueller Hinton agar, 18 hours, 37° C. How it is done: as §1, §2, §3, §4, §5
Data set [5] deals with Pseudomonas aeruginosa EP-172. Nature of the data set: MIC, standard agar dilution method, Pseudomonas aeruginosa EP-172. The class given is cell-based. The conditions noted are these: EP172, Mueller Hinton agar, 18 hours, 37° C. How it is done:
as §1, §2, §3, §4, §5

Data set [6] concerns Proteus bulgaris E-18. Nature of the data set: MIC, standard agar dilution method, Proteus bulgaris E-18. The class given is cell-based. The conditions noted are these: Mueller Hinton agar, 18 hours, 37° C. How it is done: as §1, §2, §3, §4, §5
Data set [7] deals with Staphylococcus aureus 209-P. Nature of the data set: MIC, standard agar dilution method, Staphylococcus aureus 209-P. The class given is cell-based. The note with it: Mueller Hinton agar, 18 hours, 37° C. How it is done:
as §1, §2, §3, §4, §5

In data set [8] the test system is Serratia marcescens ES-75. As to the kind of experiment: MIC, standard agar dilution method, Serratia marcescens ES-75. The class given is cell-based. The conditions noted are these: ES75, Mueller Hinton agar, 18 hours, 37° C. How it is done: as §1, §2, §3, §4, §5

Take `CO[C@@]1(NC(=O)[C@H](NC(=O)c2coc3cc(O)c(O)cc3c2=O)c2ccc(O)cc2)C(=O)N2C(C(=O)O)=C(CSc3nnc(C)s3)CS[C@@H]21` [7β-[D-2-(6,7-Dihydroxychromone-3-carboxamido)-2-(4-hydroxyphenyl)acetamido]-7α-methoxy-3-[5-methyl-2-(1,3,4-thiadiazolyl)]thiomethyl-3-cephem-4-carboxylic acid]: the 50% lethal dose (LD50) in data set [1] was > 5000 mg/kg.

Consider `CO[C@@]1(NC(=O)[C@H](NC(=O)c2coc3cc(O)c(O)cc3c2=O)c2ccc(O)cc2)C(=O)N2C(C(=O)O)=C(CSc3nnnn3CC(=O)O)CS[C@@H]21` [Example 16, 7β-[D-2-(6,7-Dihydroxychromone-3-carboxamido)-2-(4-hydroxyphenyl)acetamido]-7α-methoxy-3-1-carboxymethyl-5-tetrazolyl)thiomethyl-3-cephem-4-carboxylic acid disodium salt], for which, in data set [1], the LD50 was > 5000 mg/kg.

On to `COC(=O)Cn1nnnc1SCC1=C(C(=O)O)N2C(=O)[C@](NC(=O)[C@H](NC(=O)c3coc4cc(O)c(O)cc4c3=O)c3ccc(O)cc3)(OC)[C@H]2SC1` [Example 19, 7β-[D-2-(6,7-Dihydroxychromone-3-carboxamido)-2-(4-hydroxyphenyl)acetamido]-7α-methoxy-3-(1-methoxycarbonylmethyl-5-tetrazolyl)thiomethyl-3-cephem-4-carboxylic acid], for which the MIC in data set [2] is ≤ 0.1 µg/mL; in data set [3], 1.56 µg/mL (≈ 2.03 µM); in data set [4] it was 1.56 µg/mL (≈ 2.03 µM); in data set [5], 0.8 µg/mL (≈ 1.04 µM); in data set [6] it was 0.4 µg/mL (≈ 0.52 µM); in data set [7], 3.13 µg/mL (≈ 4.07 µM). Moreover, the MIC in data set [8] was ≤ 0.1 µg/mL.

In the case of `CCOC(=O)Oc1cc2occ(C(=O)N[C@@H](C(=O)N[C@]3(OC)C(=O)N4C(C(=O)O)=C(COC(C)=O)CS[C@@H]43)c3ccc(O)cc3)c(=O)c2cc1OC(=O)OCC` [Example 22, 7β-[D-2-(6,7-Bis(ethoxycarbonyloxy)chromone-3-carboxamido)-2-(4-hydroxyphenyl)acetamido]-7α-methoxy-3-acetoxymethyl-3-cephem-4-carboxylic acid], the MIC in data set [2] is ≤ 0.1 µg/mL; in data set [3], 6.25 µg/mL (≈ 7.82 µM); in data set [4] it was 25 µg/mL (≈ 31.3 µM); in data set [5] it was 0.8 µg/mL (≈ 1 µM); in data set [6], 1.56 µg/mL (≈ 1.95 µM); in data set [7], 1.56 µg/mL (≈ 1.95 µM). Besides, the MIC in data set [8] was 0.4 µg/mL (≈ 0.5 µM).

In the case of `CO[C@@]1(NC(=O)[C@H](NC(=O)c2coc3cc(OC(=O)OCC(Cl)(Cl)Cl)c(OC(=O)OCC(Cl)(Cl)Cl)cc3c2=O)c2ccccc2)C(=O)N2C(C(=O)O)=C(COC(C)=O)CS[C@@H]21` [Example 24, 7β-[D-2-(6,7-Bis(2,2,2-trichloroethoxy-carbonyloxy)chromon-3-carboxamido)2-phenylacetamido]-7α-methoxy-3-acetoxymethyl-3-cephem-4-carboxylic acid], the MIC is ≤ 0.1 µg/mL in data set [2]; 12.5 µg/mL (≈ 12.6 µM) in data set [3]; 25 µg/mL (≈ 25.2 µM) in data set [4]; 1.56 µg/mL (≈ 1.58 µM) in data set [5]; 3.13 µg/mL (≈ 3.16 µM) in data set [6]; 6.25 µg/mL (≈ 6.31 µM) in data set [7]. Further, the MIC in data set [8] came out at 0.8 µg/mL (≈ 0.808 µM).

Turning to `CO[C@@]1(NC(=O)[C@H](NC(=O)c2coc3cc(OC(=O)OCC(Cl)(Cl)Cl)c(OC(=O)OCC(Cl)(Cl)Cl)cc3c2=O)c2ccc(O)cc2)C(=O)N2C(C(=O)O)=C(COC(C)=O)CS[C@@H]21` [Example 25, 7β-[D-2-(6,7-Bis(2,2,2-trichloroethoxycarbonyloxy)chromone-3-carboxamido)-2-(4-hydroxyphenyl)acetamido]-7α-methoxy-3-acetoxymethyl-3-cephem-4-carboxylic acid], the MIC in data set [2] was ≤ 0.1 µg/mL; in data set [3], 12.5 µg/mL (≈ 12.4 µM); in data set [4] it was 25 µg/mL (≈ 24.8 µM); in data set [5], 0.8 µg/mL (≈ 0.795 µM); in data set [6], 3.13 µg/mL (≈ 3.11 µM); in data set [7] it was 3.13 µg/mL (≈ 3.11 µM). In data set [8], this compound gave an MIC of 0.8 µg/mL (≈ 0.795 µM).

For the compound `COC(=O)Cn1nnnc1SCC1=C(C(=O)O)N2C(=O)[C@](NC(=O)[C@H](NC(=O)c3coc4cc(OC(=O)OCC(Cl)(Cl)Cl)c(OC(=O)OCC(Cl)(Cl)Cl)cc4c3=O)c3ccc(O)cc3)(OC)[C@H]2SC1` [Example 26, 7β-[D-2-(6,7-Bis(2,2,2-trichloroethoxycarbonyloxy)chromone-3-carboxamido)-2-(4-hydroxyphenyl)acetamido]-7α-methoxy-3-(1-methoxycarbonylmethyl-5-tetrazolyl)thiomethyl-3-cephem-4-carboxylic acid], the MIC was ≤ 0.1 µg/mL in data set [2]; 6.25 µg/mL (≈ 5.58 µM) in data set [3]; 6.25 µg/mL (≈ 5.58 µM) in data set [4]; 1.56 µg/mL (≈ 1.39 µM) in data set [5]; 0.8 µg/mL (≈ 0.714 µM) in data set [6]; 12.5 µg/mL (≈ 11.2 µM) in data set [7]. In data set [8], this compound showed an MIC of 0.2 µg/mL (≈ 0.178 µM).

As for `CCOC(=O)Oc1cc2occ(C(=O)N[C@@H](C(=O)N[C@]3(OC)C(=O)N4C(C(=O)O)=C(CSc5nnnn5CC(=O)O)CS[C@@H]43)c3ccc(O)cc3)c(=O)c2cc1OC(=O)OCC` [Example 27, 7β-[D-2-(6,7-Bis(ethoxycarbonyloxy)chromone-3-carboxamido)-2-(4-hydroxyphenyl)acetamido]-7α-methoxy-3-(1-carboxymethyl-5-tetrazolyl)thiomethyl-3-cephem-4-carboxylic acid], the MIC in data set [2] is ≤ 0.1 µg/mL; in data set [3] it was 3.13 µg/mL (≈ 3.48 µM); in data set [4] it was 6.25 µg/mL (≈ 6.95 µM); in data set [5], 0.8 µg/mL (≈ 0.889 µM); in data set [6] it was 0.8 µg/mL (≈ 0.889 µM); in data set [7] it was 3.13 µg/mL (≈ 3.48 µM). Further, the MIC in data set [8] was 0.2 µg/mL (≈ 0.222 µM).

Turning to `CO[C@@]1(NC(=O)[C@H](NC(=O)c2coc3cc(O)c(O)cc3c2=O)c2ccc(O)cc2)C(=O)N2C(C(=O)O)=C(CSc3nnc(CC(=O)O)s3)CS[C@@H]21` [Example 28, 7β-[D-2-(6,7-Dihydroxychromone-3-carboxamido)-2-(4-hydroxyphenyl)acetamido]-7α-methoxy-3-[5-carboxymethyl-2-(1,3,4-thiadiazolyl)]thiomethyl-3-cephem-4-carboxylic acid], the MIC is ≤ 0.1 µg/mL in data set [2]; 3.13 µg/mL (≈ 4.06 µM) in data set [3]; 12.5 µg/mL (≈ 16.2 µM) in data set [4]; 0.8 µg/mL (≈ 1.04 µM) in data set [5]; 1.56 µg/mL (≈ 2.02 µM) in data set [6]; 3.13 µg/mL (≈ 4.06 µM) in data set [7]. This compound also registered an MIC in data set [8] of 0.4 µg/mL (≈ 0.518 µM).

Regarding `CO[C@@]1(NC(=O)[C@H](NC(=O)c2coc3cc(O)c(O)cc3c2=O)c2ccc(O)cc2)C(=O)N2C(C(=O)O)=C(CSc3nnc(CC(=O)O)o3)CS[C@@H]21` [Example 29, 7β-[D-2-(6,7-Dihydroxychromone-3-carboxamido)-2-(4-hydroxyphenyl)acetamido]-7α-methoxy-3-[5-carboxymethyl-2-(1,3,4-oxadiazolyl)]thiomethyl-3-cephem-4-carboxylic acid], the MIC in data set [2] was ≤ 0.1 µg/mL; in data set [3], 12.5 µg/mL (≈ 16.5 µM); in data set [4] it was 25 µg/mL (≈ 33.1 µM); in data set [5], 0.8 µg/mL (≈ 1.06 µM); in data set [6] it was 3.13 µg/mL (≈ 4.14 µM); in data set [7] it was 6.25 µg/mL (≈ 8.27 µM). The compound also came in with a minimal inhibitory concentration (MIC) in data set [8] of 0.8 µg/mL (≈ 1.06 µM).

For `CO[C@@]1(NC(=O)[C@H](NC(=O)c2coc3cc(O)c(O)cc3c2=O)c2ccc(O)cc2)C(=O)N2C(C(=O)O)=C(CSc3nnnn3CCN(C)C)CS[C@@H]21` [Example 31, 7β-[D-2-(6,7-Dihydroxychromone-3-carboxamido)-2-(4-hydroxyphenyl)acetamido]-7α-methoxy-3-[1-[2-(N,N-dimethylamino)ethyl]-5-tetrazolyl]thiomethyl-3-cephem-4-carboxylic acid], the MIC in data set [2] is ≤ 0.1 µg/mL; in data set [3], 12.5 µg/mL (≈ 16.3 µM); in data set [4], 25 µg/mL (≈ 32.5 µM); in data set [5], 0.8 µg/mL (≈ 1.04 µM); in data set [6], 3.13 µg/mL (≈ 4.07 µM); in data set [7], 3.13 µg/mL (≈ 4.07 µM). In data set [8], this compound registered an MIC of 0.4 µg/mL (≈ 0.52 µM).

For the compound `CCn1nnnc1SCC1=C(C(=O)O)N2C(=O)[C@](NC(=O)[C@H](NC(=O)c3coc4cc(O)c(O)cc4c3=O)c3ccc(O)cc3)(OC)[C@H]2SC1` [Example 32, 7β-[D-2-(6,7-Dihydroxychromone-3-carboxamido)-2-(4-hydroxyphenyl)acetamido]-7α-methoxy-3-(1-ethyl-5-tetrazolyl)thiomethyl-3-cephem-4-carboxylic acid], the MIC in data set [2] was ≤ 0.1 µg/mL; in data set [3], 3.13 µg/mL (≈ 4.31 µM); in data set [4] it was 12.5 µg/mL (≈ 17.2 µM); in data set [5], 0.4 µg/mL (≈ 0.551 µM); in data set [6], 1.56 µg/mL (≈ 2.15 µM); in data set [7], 1.56 µg/mL (≈ 2.15 µM). The same compound registered an MIC in data set [8] of 0.2 µg/mL (≈ 0.276 µM).

Consider `CO[C@@]1(NC(=O)[C@H](NC(=O)c2coc3cc(O)c(O)cc3c2=O)c2ccc(O)cc2)C(=O)N2C(C(=O)O)=C(CSc3nncs3)CS[C@@H]21` [Example 33, 7β-[D-2-(6,7-Dihydroxychromone-3-carboxamido)-2-(4-hydroxyphenyl)acetamido]-7α-methoxy-3-[2-(1,3,4-thiadiazolyl)]thiomethyl-3-cephem-4-carboxylic acid], for which the MIC in data set [2] was ≤ 0.1 µg/mL; in data set [3] it was 6.25 µg/mL (≈ 8.76 µM); in data set [4], 25 µg/mL (≈ 35 µM); in data set [5] it was 0.4 µg/mL (≈ 0.56 µM); in data set [6], 1.56 µg/mL (≈ 2.19 µM); in data set [7] it was 1.56 µg/mL (≈ 2.19 µM). Moreover, in data set [8], the MIC worked out at 0.2 µg/mL (≈ 0.28 µM).
